Results on 8 compounds are retold here after DBAASP.

Assay in all cases: ≥ marks a high value that may be exact or a test limit, other limits are often not marked, values filed in µg/mL are converted to µM
In assay [1] the test system is Pseudomonas aeruginosa NBRC 13275.
For assay [2], the system named is Staphylococcus aureus NBRC 13276.
Assay [3] deals with Escherichia coli DH5alpha.
Assay [4] deals with Pseudomonas aeruginosa 910.
Assay [5] has as its system Pseudomonas aeruginosa 919.
Assay [6] concerns Pseudomonas aeruginosa 253.
The test system of assay [7] is Pseudomonas aeruginosa PAO1.
Assay [8] relates to Candida albicans ATCC 90028.
The test system of assay [9] is Pseudomonas aeruginosa ATCC 27853.
Assay [10] has as its system Staphylococcus aureus ATCC 43300.
For assay [11], the system named is Cryptococcus neoformans var. grubii H99.
Assay [12] has as its system Acinetobacter baumannii ATCC 19606.
The subject of assay [13] is Staphylococcus aureus JE2.
For assay [14], the system named is Escherichia coli ATCC 25922.
Assay [15] deals with Klebsiella pneumoniae ATCC 700603.
Assay [16] deals with Escherichia coli K-12.
In assay [17] the test system is Lactiplantibacillus plantarum 8014.
The test system of assay [18] is Staphylococcus aureus ATCC 29213.
For assay [19], the system named is Staphylococcus epidermidis ATCC 12228.
Assay [20] relates to Staphylococcus aureus ATCC 25923.
The subject of assay [21] is Candida tropicalis CGMCC 2.1975.
In assay [22] the test system is Candida parapsilosis CGMCC 2.3989.
The subject of assay [23] is Lacticaseibacillus rhamnosus 7469.
Assay [24] deals with Candida albicans CGMCC 2.2086.
Assay [25] relates to Escherichia coli ATCC 35218.
For assay [26], the system named is Escherichia coli ATCC 11775.
Assay [27] concerns Escherichia coli ESBL.
Assay [28] relates to Escherichia coli ESBL 4.
Assay [29] relates to Escherichia coli ATCC 43827.
Assay [30] relates to Escherichia coli UB1005.
The test system of assay [31] is Candida albicans.
The subject of assay [32] is Staphylococcus epidermidis.
Assay [33] deals with Salmonella enterica serovar Typhimurium.
The subject of assay [34] is Enterococcus faecalis ATCC 29212.
Assay [35] relates to Pseudomonas aeruginosa H103.

≈ marks a conversion by molar mass, not a printed value.

Broadly, the MIC is the lowest concentration that inhibits growth of the organism. Low values mean inhibition by little substance, high ones a need for much substance. Consider `CC(=O)N[C@@H](C)C(=O)N[C@@H](CCCCN)C(=O)N[C@@H](CCCCN)C(=O)N[C@@H](Cc1ccccc1)C(=O)NCC(=O)N[C@@H](CCCCN)C(=O)N[C@@H](C)C(=O)N[C@@H](Cc1ccccc1)C(=O)N[C@H](C(N)=O)C(C)C` [AKKFGKAFV], for which the MIC in assay [1] is at least 200 µM; in [2], at least 400 µM; in assay [3], at least 200 µM.
As to `CC[C@H](C)[C@H](NC(=O)[C@@H](N)Cc1ccccc1)C(=O)N[C@@H](CCCCN)C(=O)N[C@@H](Cc1c[nH]c2ccccc12)C(=O)N[C@@H](CCCN=C(N)N)C(=O)N[C@@H](CO)C(=O)N[C@@H](CCCN=C(N)N)C(=O)N[C@@H](Cc1c[nH]c2ccccc12)C(=O)N[C@@H](Cc1c[nH]c2ccccc12)C(=O)N[C@@H](CCCCN)C(=O)N[C@@H](CCCCN)C(=O)N[C@@H](CCCN=C(N)N)C(=O)N[C@H](C(N)=O)[C@@H](C)O` [FIKWRSRWWKKRT], the minimal inhibitory concentration (MIC) in [4] is 8 µM (≈ 15 µg/mL); in [5] it was at least 32 µM; in [6] it was 16 µM (≈ 30 µg/mL); in [7] it was 4 µM (≈ 7.51 µg/mL).
With `CC[C@H](C)[C@H](NC(=O)[C@@H](NC(=O)[C@H](CO)NC(=O)[C@H](C)NC(=O)[C@@H](NC(=O)[C@H](CCCCN)NC(=O)[C@H](CCCCN)NC(=O)[C@@H](NC(=O)[C@@H](NC(=O)[C@H](CC(=O)O)NC(=O)[C@H](Cc1c[nH]c2ccccc12)NC(=O)[C@H](CC(C)C)NC(=O)CN)C(C)C)[C@@H](C)CC)C(C)C)C(C)C)C(=O)NCC(=O)NCC(=O)N[C@@H](CC(C)C)C(=O)O` [GLWDVIKKVASVIGGL], the MIC in assay [8] was 19.3 µM (≈ 32 µg/mL); in [9] it was above 19.3 µM; in assay [10] it was 2.42 µM (≈ 4 µg/mL); in [11], 4.83 µM (≈ 8 µg/mL); in assay [12] it was 9.67 µM (≈ 16 µg/mL); in [13], 4.83 µM (≈ 8 µg/mL). In addition, the MIC in assay [14] is above 19.3 µM; in assay [15], above 19.3 µM; in [16], 9.67 µM (≈ 16 µg/mL).
As for `CC[C@H](C)[C@H](NC(=O)[C@@H](NC(=O)[C@H](CO)NC(=O)[C@H](C)NC(=O)[C@@H](NC(=O)[C@H](CCCCN)NC(=O)[C@H](CCCN=C(N)N)NC(=O)[C@@H](NC(=O)[C@@H](NC(=O)[C@H](CCCN=C(N)N)NC(=O)[C@H](Cc1c[nH]c2ccccc12)NC(=O)[C@H](CC(C)C)NC(=O)CN)C(C)C)[C@@H](C)CC)C(C)C)C(C)C)C(=O)NCC(=O)NCC(=O)N[C@@H](CC(C)C)C(=O)O` [GLWRVIRKVASVIGGL], the MIC in assay [8] was 18.6 µM (≈ 32 µg/mL); in assay [9], above 18.6 µM; in assay [10], 2.32 µM (≈ 4 µg/mL); in [11] it was 1.16 µM (≈ 2 µg/mL); in assay [12], 1.16 µM (≈ 2 µg/mL); in assay [13] it was 9.28 µM (≈ 16 µg/mL). In addition, the MIC in assay [14] was determined as 2.32 µM (≈ 4 µg/mL); in assay [15] it was 4.64 µM (≈ 8 µg/mL); in assay [16], 18.6 µM (≈ 32 µg/mL).
Regarding `CC[C@H](C)[C@H](N)C(=O)N[C@@H](Cc1cnc[nH]1)C(=O)N[C@@H](Cc1cnc[nH]1)C(=O)N[C@H](C(=O)N[C@@H](Cc1cnc[nH]1)C(=O)N[C@@H](Cc1cnc[nH]1)C(=O)N[C@H](C(=O)N[C@H](C(=O)N[C@@H](Cc1cnc[nH]1)C(=O)N[C@@H](Cc1cnc[nH]1)C(=O)N[C@H](C(=O)N[C@@H](Cc1cnc[nH]1)C(=O)N[C@@H](Cc1cnc[nH]1)C(=O)N[C@H](C(=O)N[C@H](C(=O)N[C@@H](Cc1cnc[nH]1)C(=O)N[C@@H](Cc1cnc[nH]1)C(=O)N[C@H](C(=O)N[C@@H](Cc1cnc[nH]1)C(=O)N[C@@H](Cc1cnc[nH]1)C(=O)N[C@H](C(N)=O)[C@@H](C)CC)[C@@H](C)CC)[C@@H](C)CC)[C@@H](C)CC)[C@@H](C)CC)[C@@H](C)CC)[C@@H](C)CC)[C@@H](C)CC` [IHHIHHIIHHIHHIIHHIHHI], the MIC in [17] was at least 64 µM; in assay [18] it was above 64 µM; in assay [19], above 64 µM; in assay [20], above 64 µM; in assay [21] it was 1 µM (≈ 2.68 µg/mL); in assay [22] it was 2 µM (≈ 5.36 µg/mL). Besides, the MIC in assay [23] was at least 64 µM; in assay [24], 2 µM (≈ 5.36 µg/mL).
With `CC[C@H](C)[C@H](NC(=O)[C@H](Cc1ccc(O)cc1)NC(=O)[C@H](CCC(N)=O)NC(=O)[C@H](CC(C)C)NC(=O)[C@H](C)NC(=O)[C@H](CCCCN)NC(=O)[C@H](CCCCN)NC(=O)[C@H](CCSC)NC(=O)[C@@H](N)CCCCN)C(=O)N[C@@H](CCCCN)C(=O)N[C@@H](CC(C)C)C(=O)N[C@@H](CC(C)C)C(=O)N[C@@H](CCCCN)C(=O)N[C@@H](CCC(=O)O)C(N)=O` [KMKKALQYIKLLKE], the MIC in assay [25] is 25 µM (≈ 43.3 µg/mL); in assay [26], at least 100 µM; in assay [9], above 100 µM; in assay [27], at least 100 µM; in assay [14], 100 µM (≈ 173 µg/mL); in assay [28], at least 100 µM. Besides, the MIC in assay [29] was 25 µM (≈ 43.3 µg/mL).
Regarding `CC[C@H](C)[C@H](NC(=O)[C@H](Cc1ccc(O)cc1)NC(=O)[C@H](CCC(N)=O)NC(=O)[C@H](CC(C)C)NC(=O)[C@H](C)NC(=O)[C@H](CCCCN)NC(=O)[C@H](CCCCN)NC(=O)[C@H](CCSC)NC(=O)[C@H](CCCCN)NC(=O)[C@H](CCCCN)NC(=O)[C@H](CCCCN)NC(=O)[C@@H](N)CCCN=C(N)N)C(=O)N[C@@H](CCCCN)C(=O)N[C@@H](CC(C)C)C(=O)N[C@@H](CC(C)C)C(=O)N[C@@H](CCCCN)C(=O)N[C@@H](CCC(=O)O)C(N)=O` [RKKKMKKALQYIKLLKE], the MIC was 6 µM (≈ 12.9 µg/mL) in assay [25]; at least 100 µM in assay [26]; 100 µM (≈ 215 µg/mL) in [9]; 12.5 µM (≈ 26.8 µg/mL) in assay [27]; 25 µM (≈ 53.6 µg/mL) in assay [14]; at least 100 µM in [28]. Besides, in assay [29], the MIC was determined as 3 µM (≈ 6.44 µg/mL).
Turning to `CC[C@H](C)[C@H](NC(=O)[C@H](CCCN=C(N)N)NC(=O)[C@H](C)NC(=O)[C@H](CCCN=C(N)N)NC(=O)[C@@H](N)CCCN=C(N)N)C(=O)N[C@H](C(=O)N[C@H](C(=O)N[C@H](C(=O)N[C@@H](CCCN=C(N)N)C(=O)N[C@H](C(=O)N[C@@H](C)C(=O)N[C@@H](CCCN=C(N)N)C(N)=O)C(C)C)[C@@H](C)CC)C(C)C)C(C)C` [RRARIVVIRVAR], the MIC is 2.73 µM (≈ 4 µg/mL) in [30]; 5.46 µM (≈ 7.99 µg/mL) in assay [31]; at least 32 µM in assay [4]; 16 µM (≈ 23.4 µg/mL) in assay [5]; at least 32 µM in assay [6]; 1.37 µM (≈ 2 µg/mL) in assay [32]. Moreover, the MIC in assay [20] is 10.9 µM (≈ 16 µg/mL); in assay [33], 5.46 µM (≈ 7.99 µg/mL); in assay [7], 32 µM (≈ 46.8 µg/mL); in assay [34], 10.9 µM (≈ 16 µg/mL); in assay [35], 5.46 µM (≈ 7.99 µg/mL).
